Where two headings read alike, the source gives them in different places. Starred links: 1 amine or outer side, 2 acyl side, 3 side chain; linkers in the order of their positions; H or OH if unused. Positions of bridges follow the written chain, without caps; N, C: chain ends. Non-standard residues stand in square brackets, D forms with d. Residues, ends and D or L forms follow the SMILES beside them. *: point of attachment. NH(CH2)3NH(O2Oc(DOTA)) = O=C(O)CN1CCN(CC(=O)O)CCN(CC(=O)NCCOCCOCC(=O)NCCCN*)CCN(CC(=O)O)CC1; X3 = O=C(O)CN1CCN(CC(=O)O)CCN(CC(=O)NCCCOCCOCCOCCCN*)CCN(CC(=O)O)CC1; DOTA = O=C(O)CN1CCN(CC(=O)O)CCN(CC(=O)*)CCN(CC(=O)O)CC1; Phe(3,4-Cl2) = N[C@@H](Cc1ccc(Cl)c(Cl)c1)C(=O)O; mXylylene = c1cc(C[*:1])cc(C[*:2])c1; X2 = O=C(CN1CCC(N[*:1])CC1)[*:2]; X1 = O=C(CN1CCN([*:1])CC1)[*:2]; Suc = O=C(CCC(=O)[*:2])[*:1]; Isovaleryl = CC(C)CC(=O)*; hSer = N[C@@H](CCO)C(=O)O; Nle = CCCC[C@H](N)C(=O)O; Dap = NC[C@H](N)C(=O)O
How the values were obtained:
[1] = Plasma stability assay, mouse plasma; conditions: mouse plasma, 37°C
[2] = biological target: T1, human carbonic anhydrase IX (hCAIX-Fc) (Homo sapiens, UniProt Q16790); assay: Surface plasmon resonance assay with hCAIX-Fc; type: binding; conditions: 25° C.; for t1/2 category (activity): SPR dissociation half-life, hCAIX-Fc; for Kd: SPR, hCAIX-Fc captured, read-out: pKD category (activity) (converted)
T1 construct: purchased SinoBliological (Sino Biological) 10107-H02H

[3] = biological target: T2, CAIX-expressing human HT-29 colorectal cancer cells (Homo sapiens, UniProt Q16790); assay: FACS binding assay (IC50 determination, competition with tracer 3BP-2776 or 3BP-4149); conditions: 4° C., 1 hour, read-out: pIC50 category (activity) (converted)
T2 construct: CAIX-expressing human HT-29 colorectal cancer cells; host or cells: HT-29 human colorectal cancer cells
In short: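 HT-29 cells in FACS buffer (PBS, 1% FCS) at 500.000 cells/ml were exposed to compounds competing with a labelled tracer, with biotinylated compounds detected by 1 μg/mL APC-streptavidin for 30 min on ice. APC/Cy5 median fluorescence was read by flow cytometry and IC50 derived by 4PL fit.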

[4] = FACS competition on HT-29 cells, Tracer ID 3BP-2776 (10 nM, biotin-labeled)
[5] = FACS binding assay, HT-29 cells, competition with tracer 3BP-2776 (10 nM, biotin-labeled)

Row | Structure (SMILES) | % intact compound remaining (incubation time) ([1]; 24 h) | t1/2 category (activity) [2] | Kd [2] | IC50 [3, 4] | IC50 [3, 5] | % intact compound remaining (incubation time) ([1]; 6 h)
1 | CC(=O)N[C@H](C(=O)N[C@@H](CCCNC(=N)N)C(=O)N[C@H]1CSCc2cccc(c2)CSC[C@@H](C(N)=O)NC(=O)[C@H](CCC(=O)NCCCNC(=O)COCCOCCNC(=O)CN2CCN(CC(=O)O)CCN(CC(=O)O)CCN(CC(=O)O)CC2)NC(=O)[C@H](Cc2c[nH]c3ccccc23)NC(=O)[C@H]([C@@H](C)O)NC(=O)[C@H](CC(C)C)NC(=O)[C@H](Cc2c[nH]c3ccccc23)NC(=O)[C@H](CC(=O)O)NC(=O)[C@H]2CCCN2C(=O)[C@H](CCC(=O)O)NC1=O)C(C)C [3BP-3734] (Ac-VRCE[dP]DWLTWE(NH(CH2)3NH(O2Oc(DOTA)))C-NH2; linker 3-12 via mXylylene) | 79% | B (t1/2 between 5.1 and 15.0 minutes) | < 0.01 µM | < 0.01 µM | – | –
2 | CC(=O)N[C@@H](CCCCNC(=O)CN1CCN(CC(=O)O)CCN(CC(=O)O)CCN(CC(=O)O)CC1)C(=O)N[C@H](C(=O)N[C@@H](Cc1ccc(O)cc1)C(=O)N[C@H]1CSCc2cccc(c2)CSC[C@@H](C(N)=O)NC(=O)[C@H](CO)NC(=O)[C@H](Cc2c[nH]c3ccccc23)NC(=O)[C@H]([C@@H](C)O)NC(=O)[C@H](CC(C)C)NC(=O)[C@H](Cc2c[nH]c3ccccc23)NC(=O)[C@H](CC(=O)O)NC(=O)[C@H]2CCCN2C(=O)[C@H](CCC(=O)O)NC1=O)C(C)C [3BP-3840] (Ac-K(DOTA)VYCE[dP]DWLTWSC-NH2; linker 4-13 via mXylylene) | >95% | B (t1/2 between 5.1 and 15.0 minutes) | < 0.01 µM | < 0.01 µM | – | –
3 | CC(C)C[C@@H]1NC(=O)[C@H](Cc2c[nH]c3ccccc23)NC(=O)[C@H](CC(=O)O)NC(=O)[C@H]2CCCN2C(=O)[C@H](CCC(=O)O)NC(=O)[C@@H](NC(=O)[C@H](Cc2ccc(O)cc2)NC(=O)[C@@H](NC(=O)CN2CCC(NC(=O)CN3CCN(CC(=O)O)CCN(CC(=O)O)CCN(CC(=O)O)CC3)CC2)C(C)C)CSCc2cccc(c2)CSC[C@@H](C(N)=O)NC(=O)[C@H](CCCNC(=N)N)NC(=O)[C@H](Cc2c[nH]c3ccccc23)NC(=O)[C@H]([C@@H](C)O)NC1=O [3BP-3599] ({DOTA}-[X2]VYCE[dP]DWLTWRC-NH2; linker 4-13 via mXylylene) | – | B (t1/2 between 5.1 and 15.0 minutes) | < 0.01 µM | < 0.01 µM | – | 52%
4 | CC(C)C[C@@H]1NC(=O)[C@H](Cc2c[nH]c3ccccc23)NC(=O)[C@H](CC(=O)O)NC(=O)[C@H]2CCCN2C(=O)[C@H](CCC(=O)O)NC(=O)[C@@H](NC(=O)[C@H](Cc2ccc(O)cc2)NC(=O)CN2CCN(CC(=O)O)CCN(CC(=O)O)CCN(CC(=O)O)CC2)CSCc2cccc(c2)CSC[C@@H](C(N)=O)NC(=O)[C@H](CO)NC(=O)[C@H](Cc2c[nH]c3ccccc23)NC(=O)[C@H]([C@@H](C)O)NC1=O [3BP-3859] ({DOTA}-YCE[dP]DWLTWSC-NH2; linker 2-11 via mXylylene) | >95% | B (t1/2 between 5.1 and 15.0 minutes) | – | < 0.01 µM | – | –
5 | CC(C)C[C@@H]1NC(=O)[C@H](Cc2c[nH]c3ccccc23)NC(=O)[C@H](CC(=O)O)NC(=O)[C@H]2CCCN2C(=O)[C@H](CCC(=O)O)NC(=O)[C@@H]2CSCc3cccc(c3)CSC[C@@H](C(N)=O)NC(=O)[C@H](CNC(=O)C[C@H](NC(=O)CN3CCN(CC(=O)O)CCN(CC(=O)O)CCN(CC(=O)O)CC3)C(=O)N2)NC(=O)[C@H](Cc2c[nH]c3ccccc23)NC(=O)[C@H]([C@@H](C)O)NC1=O [3BP-4253] ({DOTA}-DCE[dP]DWLTW[Dap]C-NH2; lactam 1-10; linker 2-11 via mXylylene) | >95% | B (t1/2 between 5.1 and 15.0 minutes) | < 0.01 µM | – | < 0.01 µM | –
6 | CC(C)C[C@@H]1NC(=O)[C@H](Cc2ccc(Cl)c(Cl)c2)NC(=O)[C@H](CC(=O)O)NC(=O)[C@H]2CCCN2C(=O)[C@H](CCC(=O)O)NC(=O)[C@@H](NC(=O)[C@H](Cc2ccc(O)cc2)NC(=O)[C@@H](NC(=O)CN2CCC(NC(=O)CN3CCN(CC(=O)O)CCN(CC(=O)O)CCN(CC(=O)O)CC3)CC2)C(C)C)CSCc2cccc(c2)CSC[C@@H](C(N)=O)NC(=O)[C@H](CO)NC(=O)[C@H](Cc2c[nH]c3ccccc23)NC(=O)[C@H]([C@@H](C)O)NC1=O [3BP-4133] ({DOTA}-[X2]VYCE[dP]D[Phe(3,4-Cl2)]LTWSC-NH2; linker 4-13 via mXylylene) | >95% | B (t1/2 between 5.1 and 15.0 minutes) | < 0.01 µM | – | < 0.01 µM | –
7 | CC(C)C[C@@H]1NC(=O)[C@H](Cc2c[nH]c3ccccc23)NC(=O)[C@@H]2CCCCNC(=O)CC[C@H](NC1=O)C(=O)N[C@@H](Cc1c[nH]c3ccccc13)C(=O)N[C@@H](CO)C(=O)N[C@H](C(N)=O)CSCc1cccc(c1)CSC[C@H](NC(=O)[C@H](Cc1ccc(O)cc1)NC(=O)CN1CCN(CC(=O)O)CCN(CC(=O)O)CCN(CC(=O)O)CC1)C(=O)N[C@@H](CCC(=O)O)C(=O)N1CCC[C@@H]1C(=O)N2 [3BP-3934, DOTA-Tyr-[Cys(3MeBn)-Glu-pro-{Lys-Trp-Leu-Glu}-Trp-Ser-Cys]-NH2] ({DOTA}-YCE[dP]KWLEWSC-NH2; linker 2-11 via mXylylene; lactam 5-8) | >95% | C (t1/2 between 2.1 and 5.0 minutes) | < 0.01 µM | < 0.01 µM | – | –
8 | CC(C)C[C@@H]1NC(=O)[C@H](Cc2c[nH]c3ccccc23)NC(=O)[C@H](CC(=O)O)NC(=O)[C@H]2CCCN2C(=O)[C@H](CCO)NC(=O)[C@@H](NC(=O)[C@H](Cc2ccc(O)cc2)NC(=O)[C@@H](NC(=O)CN2CCC(NC(=O)CN3CCN(CC(=O)O)CCN(CC(=O)O)CCN(CC(=O)O)CC3)CC2)C(C)C)CSCc2cccc(c2)CSC[C@@H](C(N)=O)NC(=O)[C@H](CO)NC(=O)[C@H](Cc2c[nH]c3ccccc23)NC(=O)[C@H]([C@@H](C)O)NC1=O [3BP-4101] ({DOTA}-[X2]VYC[hSer][dP]DWLTWSC-NH2; linker 4-13 via mXylylene) | 93% | B (t1/2 between 5.1 and 15.0 minutes) | < 0.01 µM | – | < 0.01 µM | –

The next lines start with the values.

Row | % intact compound remaining (incubation time) ([1]; 24 h) | t1/2 category (activity) [2] | Kd [2] | IC50 [3, 4] | IC50 [3, 5] | % intact compound remaining (incubation time) ([1]; 6 h) | Structure (SMILES)
9 | 81% | A (t1/2>15.0 minutes) | < 0.01 µM | – | < 0.01 µM | – | CC(C)C[C@@H]1NC(=O)[C@H](Cc2c[nH]c3ccccc23)NC(=O)[C@H](CC(N)=O)NC(=O)[C@H]2CCCN2C(=O)[C@H](CCC(=O)O)NC(=O)[C@@H](NC(=O)[C@H](Cc2ccc(O)cc2)NC(=O)[C@@H](NC(=O)CN2CCC(NC(=O)CN3CCN(CC(=O)O)CCN(CC(=O)O)CCN(CC(=O)O)CC3)CC2)C(C)C)CSCc2cccc(c2)CSC[C@@H](C(N)=O)NC(=O)[C@H](CO)NC(=O)[C@H](Cc2c[nH]c3ccccc23)NC(=O)[C@H]([C@@H](C)O)NC1=O [3BP-4103] ({DOTA}-[X2]VYCE[dP]NWLTWSC-NH2; linker 4-13 via mXylylene)
10 | >95% | B (t1/2 between 5.1 and 15.0 minutes) | < 0.01 µM | < 0.01 µM | – | – | CC(C)CC(=O)N[C@@H](Cc1ccc(O)cc1)C(=O)N[C@H]1CSCc2cccc(c2)CSC[C@@H](C(N)=O)NC(=O)[C@H](CCC(=O)NCCCNC(=O)COCCOCCNC(=O)CN2CCN(CC(=O)O)CCN(CC(=O)O)CCN(CC(=O)O)CC2)NC(=O)[C@H](Cc2c[nH]c3ccccc23)NC(=O)[C@H]([C@@H](C)O)NC(=O)[C@H](CC(C)C)NC(=O)[C@H](Cc2c[nH]c3ccccc23)NC(=O)[C@H](CC(=O)O)NC(=O)[C@H]2CCCN2C(=O)[C@H](CCC(=O)O)NC1=O [3BP-3740] (Isovaleryl-YCE[dP]DWLTWE(NH(CH2)3NH(O2Oc(DOTA)))C-NH2; linker 2-11 via mXylylene)
11 | 92% | B (t1/2 between 5.1 and 15.0 minutes) | < 0.01 µM | < 0.01 µM | – | – | CCCC[C@H](NC(=O)CCC(=O)NCCCOCCOCCOCCCNC(=O)CN1CCN(CC(=O)O)CCN(CC(=O)O)CCN(CC(=O)O)CC1)C(=O)N[C@@H](Cc1ccc(O)cc1)C(=O)N[C@H]1CSCc2cccc(c2)CSC[C@@H](C(N)=O)NC(=O)[C@H](CO)NC(=O)[C@H](Cc2c[nH]c3ccccc23)NC(=O)[C@H]([C@@H](C)O)NC(=O)[C@H](CC(C)C)NC(=O)[C@H](Cc2c[nH]c3ccccc23)NC(=O)[C@H](CC(=O)O)NC(=O)[C@H]2CCCN2C(=O)[C@H](CCC(=O)O)NC1=O [3BP-3870] ({X3-Suc}-[Nle]YCE[dP]DWLTWSC-NH2; linker 3-12 via mXylylene)
12 | 81% | D (t1/2≤2.0 minutes) | < 0.01 µM | – | < 0.01 µM | – | CC(C)C[C@@H]1NC(=O)[C@H](Cc2c[nH]c3ccccc23)NC(=O)[C@H](CC(=O)O)NC(=O)[C@H]2CCCN2C(=O)[C@H](CCC(=O)O)NC(=O)[C@@H]2CSCc3cccc(c3)CSC[C@@H](C(N)=O)NC(=O)[C@H](CNC(=O)C[C@H](NC(=O)CN3CCN(C(=O)CN4CCN(CC(=O)O)CCN(CC(=O)O)CCN(CC(=O)O)CC4)CC3)C(=O)N2)NC(=O)[C@H](Cc2c[nH]c3ccccc23)NC(=O)[C@H]([C@@H](C)O)NC1=O [3BP-4255] ({DOTA}-[X1]DCE[dP]DWLTW[Dap]C-NH2; lactam 2-11; linker 3-12 via mXylylene)

From US20250339569A1, “CARBONIC ANHYDRASE IX LIGANDS” (priority 2021, published 2025)
